Test system: bleomycin-induced pulmonary fibrosis, C57BL/6 mice
Assay: Bleomycin-induced pulmonary fibrosis in mice
Assay type: in vivo, mouse
Details: for fibrosis-associated inflammation (BAL cell counts, CD11b, CD11c, CD45, Ly6G, Ly6C): daily i.p. from day 10, 1 mg/kg (2-acetyl pyridine, methyl picolinate) or 0.1 mg/kg (AMPCA), day 21, FIGS. 8A-F; for bleomycin-induced decrease in weights of mice / bleomycin-induced collagen deposition in the lungs (Sirius red staining): daily i.p. from day 10, 1 mg/kg (2AP, MP) or 0.1 mg/kg (AMPCA); for bleomycin-induced decrease in weights of mice: 21 days, FIGS. 11A-D; for bleomycin-induced collagen deposition in the lungs (Sirius red staining): day 21, FIGS. 9-10
Description: To determine if selected compounds affect pulmonary fibrosis in mice, 8-10 week old 26-30 g male C57BL/6 mice (Jackson, Bar Harbor, ME) were given an oropharyngeal aspiration of 3 units/kg bleomycin (2246-10, 50, BioVision Incorporated, Milpitas, CA) in 50 μl of 0.9% saline to induce symptoms of pulmonary fibrosis or oropharyngeal saline as a control following Current protocols in mouse biology 2, 167-175, (2012). Starting 10 days after bleomycin had been administered, some of the bleomycin-treated mice were given daily intraperitoneal injections of 100 μl of PBS or 1 mg/kg 2-acetyl pyridine (sc-254121, Santa Cruz Biotechnology, Inc. Dallas, TX) or 1 mg/kg methyl picolinate (sc-228575, Santa Cruz Biotechnology, Inc.) or 0.1 mg/kg of 2-piperidinecarboxylic acid, 4-amino-1-methyl (A00285-13785-026, Sundia, Shanghai, China) in 100 μl PBS. At day 21, mice were sacrificed by CO2 inhalation, and bronchoalveolar lavage (BAL) fluid and cytospins of BAL cells were obtained as previously described in Current protocols in mouse biology 2, 167-175 (2012); Proceedings of the National Academy of Sciences of the United States of America 112, 11929-11934 (2015); Proceedings of the National Academy of Sciences of the United States of America 111, 18291-18296 (2014); Proceedings of the National Academy of Sciences of the United States of America 112, 8385-8390 (2015); and Public Library of Science ONE 9, e93730 (2014) (all hereby incorporated by reference). The total cells from cytospins were quantified as described previously in Current protocols in mouse biology 2, 167-175, (2012); and Public Library of Science ONE 9, e93730 (2014). The lungs were removed and inflated with Surgipath frozen section compound (3801480, Leica, Buffalo Grove, IL) and preserved at −80° C. 6-10 μm cryosections of lungs were placed on glass slides (48311-703, VWR). The experiment was performed in accordance with the recommendations in the Guide for the Care and Use of Laboratory Animals of the National Institutes of Health. The Texas A&M University Animal Use and Care Committee approved the protocol.
Cryosections were stained for collagen with 0.1% Sirius red (09400, Polysciences, Warrington, PA), in saturated picric acid (26853-07, Electron Microscopy Sciences, Hatfield, PA) for 15 minutes at room temperature. The sections were washed in 0.5% acetic acid in water (v/v) for 10 minutes with two washes at room temperature. After dehydrating the sections in ethanol, the sections were mounted in Permount mounting medium (17986-01, Electron Microscopy Sciences). The sections were imaged on a Nikon Microphot-FX (Nikon, Tokyo, Japan), and staining was quantified with ImageJ.
Immunohistochemistry on BAL cytospins was performed as described previously in Public Library of Science ONE 9, e93730 (2014); Proceedings of the National Academy of Sciences of the United States of America 111, 18291-18296 (2014); and Proceedings of the National Academy of Sciences of the United States of America 112, 8385-8390 (2015) using anti-CD11b (101202, clone M1/70 BioLegend, San Diego, CA) to detect blood and inflammatory macrophages, anti-CD11c (M100-3, clone 223H7, MBL International, Woburn, MA) to detect alveolar macrophages and dendritic cells, anti-CD45 (103102, clone 30-F11, BioLegend) for total leukocytes, anti-Ly-6G (127602, clone 1A8, BioLegend) to detect neutrophils, and anti-Ly-6C (128001, clone HK1.4, BioLegend) to detect a variety of inflammatory immune system cells, and with isotype-matched irrelevant antibodies (BioLegend) as controls.

| Structure (SMILES) | fibrosis-associated inflammation (BAL cell counts, CD11b, CD11c, CD45, Ly6G, Ly6C) | bleomycin-induced decrease in weights of mice | bleomycin-induced collagen deposition in the lungs (Sirius red staining) |
| --- | --- | --- | --- |
| CN1CCC(N)CC1C(=O)O (stereo not drawn) [Compound 26, 2-piperidinecarboxylic acid, 4-amino-1-methyl] | can reduce fibrosis-associated inflammation | attenuated | reduced |
| COC(=O)c1ccccn1 [Compound 6, methyl picolinate] | can reduce fibrosis-associated inflammation | attenuated | reduced |
| CC(=O)c1ccccn1 [Compound 5, 2-acetylpyridine] | can reduce fibrosis-associated inflammation | attenuated | reduced |
